Molecular target: human BTK (Homo sapiens (Human), UniProt Q06187)
Test: BTK inhibition: BTK-mediated phosphorylation of FAM-labeled substrate 5-FAM-[…]-NH2 (Caliper LC-3000)
Type: biochemical
Conditions: residues 382 to 659 of human BTK; 60 minutes at room temperature; pIC50 = -log(IC50), IC50 molar
Text: The activity of compounds as BTK inhibitors may be determined by a variety of methods, including in vitro and in vivo methods.
This construct engineers an in-frame translational fusion with the Glutathione-S-Transferase (GST) protein for use in affinity purification. The fusion protein derived from this construct contains a protease recognition sequence to liberate the BTK from the GST affinity tag. High-titer baculoviral stocks, generated using the Bac-to-Bac® system (Invitrogen), are used to express the recombinant protein in Spodoptera frugiperda Sf9 cells in 10 L Wave bags. Recombinant proteins are isolated from cellular extracts by passage over Glutathione Sepharose 4B (GE Healthcare) and the BTK moiety is released from the GST affinity tag by treatment with PreScission protease. The BTK recombinant protein is further purified by size exclusion chromatography (HiLoad 16/60 Superdex 200, GE Healthcare) in a buffer containing 20 mM Hepes (pH 7.4), 50 mM NaCl, 10 mM MgCl2, 0.25 mM TCEP and 0.1 mM EDTA. The purity of the fractions is assessed by SDS PAGE and the peak protein fractions are pooled and concentrated using Amicon Ultra-15 Centrifugal Filter Devices (Millipore).
The inhibitory properties of compounds relative to BTK is determined using a black 384-well-plate format in a buffer which contains 50 mM Hepes, 10 mM NaCl, 10 mM MgCl2, 0.2 mM EDTA, 0.01% Brij35®, 1 mM DTT, and 0.1 mg/mL BSA at pH 7.3. The test compound is prepared in DMSO using 2-fold serial dilutions for 11 data points, which are added to the buffer so that each dilution contains 3% DMSO. […] The reaction mixtures are incubated at room temperature for 60 minutes and then quenched by adding 25 μL of 50 mM EDTA. To quantify the fluorescent-labeled substrate and product following reaction, the test plate is loaded on a Caliper LC-3000, which measures percent of conversion by microfluidic-based separation.
The compounds were tested in accordance with the assay described on page 42 of the specification.

human BTK, sequence (Q06187 382-659): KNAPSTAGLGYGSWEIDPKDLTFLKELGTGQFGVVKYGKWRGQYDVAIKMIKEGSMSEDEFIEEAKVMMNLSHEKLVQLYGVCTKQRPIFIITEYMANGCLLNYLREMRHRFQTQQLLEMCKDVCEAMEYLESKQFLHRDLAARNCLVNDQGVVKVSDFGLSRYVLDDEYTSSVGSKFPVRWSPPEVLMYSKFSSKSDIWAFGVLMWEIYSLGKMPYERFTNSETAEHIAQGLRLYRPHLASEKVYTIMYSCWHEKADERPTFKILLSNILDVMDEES

Compound | BTK Inhibition (pIC50)
C=CC(=O)N1CCC[C@H]1CNc1nc(-c2n[nH]c(=O)[nH]2)cc2ccccc12 [Example 6, (S)-3-(1-(((1-acryloylpyrrolidin-2-yl)methyl)amino)isoquinolin-3-yl)-1H-1,2,4-triazol-5(4H)-one] | 8.0
C=CC(=O)N1CC[C@H](N(C)c2nc(-c3n[nH]c(=O)[nH]3)cc3ccccc23)C1 [Example 11, (S)-3-(1-((1-acryloylpyrrolidin-3-yl)(methyl)amino)isoquinolin-3-yl)-1H-1,2,4-triazol-5(4H)-one] | 8.5
C=CC(=O)N1CC[C@H](Nc2nc(-c3n[nH]c(=O)[nH]3)cc3cccc(F)c23)C1 [Example 23, (S)-3-(1-((1-acryloylpyrrolidin-3-yl)amino)-8-fluoroisoquinolin-3-yl)-1H-1,2,4-triazol-5(4H)-one] | >8.9
C=CC(=O)N1CC[C@H](Nc2nc(-c3n[nH]c(=O)[nH]3)cc3cccc(OC)c23)C1 [Example 29, (S)-3-(1-((1-acryloylpyrrolidin-3-yl)amino)-8-methoxyisoquinolin-3-yl)-1H-1,2,4-triazol-5(4H)-one] | >8.6
C=C(C)C(=O)N1CC[C@H](Nc2nc(-c3n[nH]c(=O)[nH]3)cc3ccccc23)C1 [Example 10, (S)-3-(1-((1-methacryloylpyrrolidin-3-yl)amino)isoquinolin-3-yl)-1H-1,2,4-triazol-5(4H)-one] | 7.5
C=CC(=O)N1C[C@@H](C)[C@H](Oc2nc(-c3n[nH]c(=O)[nH]3)cc3ccccc23)C1 [Example 21, 3-(1-(((3S,4R)-1-acryloyl-4-methylpyrrolidin-3-yl)oxy)isoquinolin-3-yl)-1H-1,2,4-triazol-5(4H)-one] | 6.9
C=CC(=O)N1CC[C@H](Nc2nc(-c3n[nH]c(=O)[nH]3)cc3ccccc23)C1 [Example 8, (S)-3-(1-((1-acryloylpyrrolidin-3-yl)amino)isoquinolin-3-yl)-1H-1,2,4-triazol-5(4H)-one] | >8.6
C=CC(=O)NC1CCN(c2nc(-c3n[nH]c(=O)[nH]3)cc3ccccc23)C1 (stereo not drawn) [Example 4, N-(1-(3-(5-oxo-4,5-dihydro-1H-1,2,4-triazol-3-yl)isoquinolin-1-yl)pyrrolidin-3-yl)acrylamide] | >8.1
O=C(CCl)N1CC[C@H](Oc2nc(-c3n[nH]c(=O)[nH]3)cc3ccccc23)C1 [Example 33, (S)-5-(1-((1-(2-chloroacetyl)pyrrolidin-3-yl)oxy)isoquinolin-3-yl)-2,4-dihydro-3H-1,2,4-triazol-3-one] | >8.2
C=C(C)C(=O)N1CC[C@H](Oc2nc(-c3n[nH]c(=O)[nH]3)cc3ccccc23)C1 [Example 12, (S)-3-(1-((1-methacryloylpyrrolidin-3-yl)oxy)isoquinolin-3-yl)-1H-1,2,4-triazol-5(4H)-one] | 6.9
C=CC(=O)N1CC[C@H](Oc2nc(-c3n[nH]c(=O)[nH]3)cc3cccnc23)C1 [Example 16, (S)-3-(8-((1-acryloylpyrrolidin-3-yl)oxy)-1,7-naphthyridin-6-yl)-1H-1,2,4-triazol-5(4H)-one] | >8.5
C=CC(=O)N1CCC[C@@H]1COc1nc(-c2n[nH]c(=O)[nH]2)cc2ccccc12 [Example 9, (R)-3-(1-((1-acryloylpyrrolidin-2-yl)methoxy)isoquinolin-3-yl)-1H-1,2,4-triazol-5(4H)-one] | >7.9
C=CC(=O)N1CC[C@H](Nc2nc(-c3n[nH]c(=O)[nH]3)cc3cccnc23)C1 [Example 17, (S)-3-(8-((1-acryloylpyrrolidin-3-yl)amino)-1,7-naphthyridin-6-yl)-1H-1,2,4-triazol-5(4H)-one] | >8.6
C=CC(=O)N1C[C@H](Oc2nc(-c3n[nH]c(=O)[nH]3)cc3ccccc23)[C@@H](C)C1 [Example 20, 3-(1-(((3R,4S)-1-acryloyl-4-methylpyrrolidin-3-yl)oxy)isoquinolin-3-yl)-1H-1,2,4-triazol-5(4H)-one] | >8.6
C=C(C)C(=O)N1CC[C@@H](Oc2nc(-c3n[nH]c(=O)[nH]3)cc3ccccc23)C1 [Example 1, (R)-3-(1-((1-methacryloylpyrrolidin-3-yl)oxy)isoquinolin-3-yl)-1H-1,2,4-triazol-5(4H)-one] | 6.7
C=CC(=O)N1CC[C@H](Nc2nc(-c3n[nH]c(=O)[nH]3)cc3ccc(F)cc23)C1 [Example 25, (S)-3-(1-((1-acryloylpyrrolidin-3-yl)amino)-7-fluoroisoquinolin-3-yl)-1H-1,2,4-triazol-5(4H)-one] | >8.6
C=CC(=O)N1CC[C@H](Oc2nc(-c3n[nH]c(=O)[nH]3)ccc2C)C1 [Example 32, (S)-3-(6-((1-acryloylpyrrolidin-3-yl)oxy)-5-methylpyridin-2-yl)-1H-1,2,4-triazol-5(4H)-one] | 8.3
C=CC(=O)N1CC[C@H](Oc2nc(-c3n[nH]c(=O)[nH]3)cc3ccccc23)C1 [Example 5, (S)-3-(1-((1-acryloylpyrrolidin-3-yl)oxy)isoquinolin-3-yl)-1H-1,2,4-triazol-5(4H)-one] | >8.7
C=CC(=O)N1CC[C@H](OCc2nc(-c3n[nH]c(=O)[nH]3)cc3ccccc23)C1 [Example 13, (S)-3-(1-(((1-acryloylpyrrolidin-3-yl)oxy)methyl)isoquinolin-3-yl)-1H-1,2,4-triazol-5(4H)-one] | >8.0
C=CC(=O)N1CC[C@H](Oc2nc(-c3n[nH]c(=O)[nH]3)cc3cccc(Cl)c23)C1 [Example 27, (S)-3-(1-((1-acryloylpyrrolidin-3-yl)oxy)-8-chloroisoquinolin-3-yl) -1H-1,2,4-triazol-5(4H)-one] | >8.9
C/C=C/C(=O)N1CC[C@@H](Oc2nc(-c3n[nH]c(=O)[nH]3)cc3ccccc23)C1 [Example 3, (R,E)-3-(1-((1-(but-2-enoyl)pyrrolidin-3-yl)oxy)isoquinolin-3-yl)-1H-1,2,4-triazol-5(4H)-one] | 6.5
C=CC(=O)N1CC[C@H](Oc2cccc(-c3n[nH]c(=O)[nH]3)n2)C1 [Example 31, (S)-3-(6-((1-acryloylpyrrolidin-3-yl)oxy)pyridin-2-yl)-1H-1,2,4-triazol-5(4H)-one] | 7.2
C=CC(=O)N1CC[C@@H](Oc2nc(-c3n[nH]c(=O)[nH]3)cc3ccccc23)C1 [Example 2, (R)-3-(1-((1-acryloylpyrrolidin-3-yl)oxy)isoquinolin-3-yl)-1H-1,2,4-triazol-5(4H)-one] | 7.1
C=CC(=O)N1CC[C@H](Nc2nc(-c3n[nH]c(=O)[nH]3)cc3cccc(Cl)c23)C1 [Example 28, (S)-3-(1-((1-acryloylpyrrolidin-3-yl)amino)-8-chloroisoquinolin-3-yl)-1H-1,2,4-triazol-5(4H)-one] | >8.6
C=CC(=O)N1CC[C@H](Nc2nc(-c3n[nH]c(=O)[nH]3)cc3ccc(Cl)cc23)C1 [Example 26, (S)-3-(1-((1-acryloylpyrrolidin-3-yl)amino)-7-chloroisoquinolin-3-yl)-1H-1,2,4-triazol-5 (4H)-one] | >8.6
O=C(CCl)N1CC[C@H](Nc2nc(-c3n[nH]c(=O)[nH]3)cc3ccccc23)C1 [Example 34, (S)-5-(1-((1-(2-chloroacetyl)pyrrolidin-3-yl)amino)isoquinolin-3-yl)-2,4-dihydro-3H-1,2,4-triazol-3-one] | >8.6
C=CC(=O)N1CC[C@H](Oc2nc(-c3n[nH]c(=O)[nH]3)cc3ccc(F)cc23)C1 [Example 18, (S)-3-(1-((1-acryloylpyrrolidin-3-yl)oxy)-7-fluoroisoquinolin-3-yl)-1H-1,2,4-triazol-5(4H)-one] | >8.2
C/C=C/C(=O)N1CC[C@H](Nc2nc(-c3n[nH]c(=O)[nH]3)cc3ccccc23)C1 [Example 15, (S,E)-3-(1-((1-(but-2-enoyl)pyrrolidin-3-yl)amino)isoquinolin-3-yl)-1H-1,2,4-triazol-5(4H)-one] | 7.6
C=CC(=O)N1CCC[C@H]1COc1nc(-c2n[nH]c(=O)[nH]2)cc2ccccc12 [Example 7, (S)-3-(1-((1-acryloylpyrrolidin-2-yl)methoxy)isoquinolin-3-yl)-1H-1,2,4-triazol-5(4H)-one] | 8.0
C=CC(=O)N1CCC[C@H](Oc2nc(-c3n[nH]c(=O)[nH]3)cc3ccccc23)C1 [Example 35, (S)-5-(1-((1-acryloylpiperidin-3-yl)oxy)isoquinolin-3-yl)-2,4-dihydro-3H-1,2,4-triazol-3-one] | 7.5
